US20030087906A1, “NITROGEN SUBSTITUTED BIARYL PURINE DERIVATIVES AS POTENT ANTIPROLIFERATIVE AGENTS” (priority 2001, published 2003)
Several values for one entry are separate records, joined by “and”; a condition that tells them apart may be missing. Equal entries are not always repeated. Each block holds one compound with its values, some of them ahead of it.

Legend:
BT-549 = test: NCI 60-cell line growth inhibition assay; format: cell-based; conditions: Homo sapiens; Breast, BT-549
MCF7 = test: NCI 60-cell line growth inhibition assay; format: cell-based; conditions: Homo sapiens; Breast, MCF7
MDA-MB-435 = test: NCI 60-cell line growth inhibition assay; format: cell-based; conditions: Homo sapiens; Breast, MDA-MB-435
NCI/ADR-RES = test: NCI 60-cell line growth inhibition assay; format: cell-based; conditions: Homo sapiens; Breast, NCI/ADR-RES
T-47D = test: NCI 60-cell line growth inhibition assay; format: cell-based; conditions: Homo sapiens, T47D; Breast, T-47D
SF-268 = test: NCI 60-cell line growth inhibition assay; format: cell-based; conditions: Homo sapiens; CNS, SF-268
SF-295 = test: NCI 60-cell line growth inhibition assay; format: cell-based; conditions: Homo sapiens; CNS, SF-295
SF-539 = test: NCI 60-cell line growth inhibition assay; format: cell-based; conditions: Homo sapiens; CNS, SF-539
SNB-19 = test: NCI 60-cell line growth inhibition assay; format: cell-based; conditions: Homo sapiens; CNS, SNB-19
U251 = test: NCI 60-cell line growth inhibition assay; format: cell-based; conditions: Homo sapiens, U-251; CNS, U251
COLO 205 = test: NCI 60-cell line growth inhibition assay; format: cell-based; conditions: Homo sapiens; Colon, COLO 205
HCC-2998 = test: NCI 60-cell line growth inhibition assay; format: cell-based; conditions: Homo sapiens; Colon, HCC-2998
HCT-116 = test: NCI 60-cell line growth inhibition assay; format: cell-based; conditions: Homo sapiens; Colon, HCT-116
HCT-15 = test: NCI 60-cell line growth inhibition assay; format: cell-based; conditions: Homo sapiens; Colon, HCT-15
HT29 = test: NCI 60-cell line growth inhibition assay; format: cell-based; conditions: Homo sapiens, HT-29; Colon, HT29
KM12 = test: NCI 60-cell line growth inhibition assay; format: cell-based; conditions: Homo sapiens; Colon, KM12
SW-620 = test: NCI 60-cell line growth inhibition assay; format: cell-based; conditions: Homo sapiens; Colon, SW-620
CCRF-CEM = test: NCI 60-cell line growth inhibition assay; format: cell-based; conditions: Homo sapiens; Leukemia, CCRF-CEM
HL-60(TB) = test: NCI 60-cell line growth inhibition assay; format: cell-based; conditions: Homo sapiens; Leukemia, HL-60(TB)
K-562 = test: NCI 60-cell line growth inhibition assay; format: cell-based; conditions: Homo sapiens, K562; Leukemia, K-562
MOLT-4 = test: NCI 60-cell line growth inhibition assay; format: cell-based; conditions: Homo sapiens; Leukemia, MOLT-4
RPMI-8226 = test: NCI 60-cell line growth inhibition assay; format: cell-based; conditions: Homo sapiens; Leukemia, RPMI-8226
SR = test: NCI 60-cell line growth inhibition assay; format: cell-based; conditions: Homo sapiens; Leukemia, SR
LOX IMVI = test: NCI 60-cell line growth inhibition assay; format: cell-based; conditions: Homo sapiens; Melanoma, LOX IMVI
M14 = test: NCI 60-cell line growth inhibition assay; format: cell-based; conditions: Homo sapiens; Melanoma, M14
MALME-3M = test: NCI 60-cell line growth inhibition assay; format: cell-based; conditions: Homo sapiens; Melanoma, MALME-3M
SK-MEL-2 = test: NCI 60-cell line growth inhibition assay; format: cell-based; conditions: Homo sapiens; Melanoma, SK-MEL-2
SK-MEL-28 = test: NCI 60-cell line growth inhibition assay; format: cell-based; conditions: Homo sapiens; Melanoma, SK-MEL-28
SK-MEL-5 = test: NCI 60-cell line growth inhibition assay; format: cell-based; conditions: Homo sapiens; Melanoma, SK-MEL-5
UACC-257 = test: NCI 60-cell line growth inhibition assay; format: cell-based; conditions: Homo sapiens; Melanoma, UACC-257
UACC-62 = test: NCI 60-cell line growth inhibition assay; format: cell-based; conditions: Homo sapiens; Melanoma, UACC-62
A549/ATCC = test: NCI 60-cell line growth inhibition assay; format: cell-based; conditions: Homo sapiens; Non-Small Cell Lung, A549/ATCC
EKVX = test: NCI 60-cell line growth inhibition assay; format: cell-based; conditions: Homo sapiens; Non-Small Cell Lung, EKVX
HOP-62 = test: NCI 60-cell line growth inhibition assay; format: cell-based; conditions: Homo sapiens; Non-Small Cell Lung, HOP-62
NCI-H23 = test: NCI 60-cell line growth inhibition assay; format: cell-based; conditions: Homo sapiens; Non-Small Cell Lung, NCI-H23
NCI-H322M = test: NCI 60-cell line growth inhibition assay; format: cell-based; conditions: Homo sapiens; Non-Small Cell Lung, NCI-H322M
NCI-H460 = test: NCI 60-cell line growth inhibition assay; format: cell-based; conditions: Homo sapiens; Non-Small Cell Lung, NCI-H460
NCI-H522 = test: NCI 60-cell line growth inhibition assay; format: cell-based; conditions: Homo sapiens; Non-Small Cell Lung, NCI-H522
IGROV1 = test: NCI 60-cell line growth inhibition assay; format: cell-based; conditions: Homo sapiens, IGROV-1; Ovarian, IGROV1
OVCAR-3 = test: NCI 60-cell line growth inhibition assay; format: cell-based; conditions: Homo sapiens; Ovarian, OVCAR-3
OVCAR-4 = test: NCI 60-cell line growth inhibition assay; format: cell-based; conditions: Homo sapiens; Ovarian, OVCAR-4
OVCAR-5 = test: NCI 60-cell line growth inhibition assay; format: cell-based; conditions: Homo sapiens; Ovarian, OVCAR-5
OVCAR-8 = test: NCI 60-cell line growth inhibition assay; format: cell-based; conditions: Homo sapiens; Ovarian, OVCAR-8
SK-OV-3 = test: NCI 60-cell line growth inhibition assay; format: cell-based; conditions: Homo sapiens; Ovarian, SK-OV-3
DU-145 = test: NCI 60-cell line growth inhibition assay; format: cell-based; conditions: Homo sapiens; Prostate, DU-145
PC-3 = test: NCI 60-cell line growth inhibition assay; format: cell-based; conditions: Homo sapiens; Prostate, PC-3
786-0 = test: NCI 60-cell line growth inhibition assay; format: cell-based; conditions: Homo sapiens; Renal, 786-0
ACHN = test: NCI 60-cell line growth inhibition assay; format: cell-based; conditions: Homo sapiens; Renal, ACHN
CAKI-1 = test: NCI 60-cell line growth inhibition assay; format: cell-based; conditions: Homo sapiens; Renal, CAKI-1
TK-10 = test: NCI 60-cell line growth inhibition assay; format: cell-based; conditions: Homo sapiens; Renal, TK-10
UO-31 = test: NCI 60-cell line growth inhibition assay; format: cell-based; conditions: Homo sapiens; Renal, UO-31
CyclinB/cdk1 = target: T1, CyclinB/cdk1 (Homo sapiens, UniProt P06493); test: CyclinB/cdk1 protein kinase assay (histone H1 phosphorylation); format: biochemical; conditions: complex immunopurified from HeLa cells; 15 μM ATP; replicate experiments
T1 construct: Monoclonal antibody against cyclinB (GNS1) is added to the supernatant; endogenous in cells
T1 sequence (P06493 whole entry): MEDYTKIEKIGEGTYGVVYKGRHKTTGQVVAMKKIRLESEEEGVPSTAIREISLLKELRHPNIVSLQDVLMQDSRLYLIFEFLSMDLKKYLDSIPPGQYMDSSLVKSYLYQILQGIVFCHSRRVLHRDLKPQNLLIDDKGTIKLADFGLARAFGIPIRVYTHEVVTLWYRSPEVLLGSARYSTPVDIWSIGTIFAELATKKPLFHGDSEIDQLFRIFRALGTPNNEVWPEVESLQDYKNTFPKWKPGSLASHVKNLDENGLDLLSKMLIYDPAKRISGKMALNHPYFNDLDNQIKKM
T1 sequence (P14635 whole entry partner): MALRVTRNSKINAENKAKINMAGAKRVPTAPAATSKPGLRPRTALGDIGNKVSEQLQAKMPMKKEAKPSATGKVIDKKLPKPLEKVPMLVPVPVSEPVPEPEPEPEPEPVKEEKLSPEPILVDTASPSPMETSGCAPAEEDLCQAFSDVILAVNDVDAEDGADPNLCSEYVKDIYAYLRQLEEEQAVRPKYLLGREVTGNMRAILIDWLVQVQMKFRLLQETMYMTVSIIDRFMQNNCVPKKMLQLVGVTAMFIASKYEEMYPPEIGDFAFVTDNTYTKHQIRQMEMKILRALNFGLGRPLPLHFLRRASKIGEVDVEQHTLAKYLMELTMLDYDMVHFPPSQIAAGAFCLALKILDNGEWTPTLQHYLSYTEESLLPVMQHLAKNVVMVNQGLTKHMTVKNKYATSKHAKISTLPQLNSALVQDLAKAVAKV
Protocol: HeLa cells are blocked at the G1/S border by culturing in the presence of 2 mM thymidine for 20 h. The cells are then rinsed 3×in phosphate buffered saline and resuspended in regular medium. After 4 h of culture, the mitotic blocker, nocodazole is added to a final concentration of 75 ng/ml. […] The lysate is then clarified by centrifugation at 10,000×g for 10 min. The supernatant is collected and diluted 1:5 with Lysis Buffer. Monoclonal antibody against cyclinB (GNS1) is added to the supernatant to a final concentration of 5 μg/ml and shaken at 4° C. for 2 h. The immune complexes are then collected by the addition of 200 μl of protein agarose beads for 1 h. The beads are washed 4×in lysis buffer and 1×in kinase assay buffer.
Duplicate assays were performed at each concentration.

CyclinA/cdk2 = CyclinA/cdk2 (Homo sapiens, UniProt P24941); test: CyclinA/cdk2 protein kinase assay (histone H1 phosphorylation); conditions: IC50 CyclinA/cdk2, complex immunopurified from HeLa cells; 15 μM ATP; replicate experiments
CyclinE/cdk2 = CyclinE/cdk2 (Homo sapiens, UniProt P24941); test: CyclinE/cdk2 protein kinase assay (histone H1 phosphorylation); conditions: IC50 CyclinE/cdk2, complex immunopurified from HeLa cells; 15 μM ATP; replicate experiments
[1] = system: Tumor Cells in Hollow Fibers; test: NCI Hollow Fiber Assay (in vivo evaluation)
[2] = MTD (NCI in vivo evaluation, Table 8); conditions: mouse
HeLa S-3 cells = test: Inhibition of cell growth of HeLa cells (SRB); format: cell-based, human; conditions: Homo sapiens, HeLa S3, 48 h, 2 days of treatment, replicate experiments
Protocol: Growth inhibition (GI50) values were measured with HeLa S-3 cells selected for growth on plastic. […] One day later, a control plate was fixed by addition of TCA to 5%. After five rinses with tap water the plate was air dried and stored at 4° C. Test compounds were added to the remaining plates at 10-fold dilutions between 0.01 and 100 μM. Two days later all plates were fixed as described above. Cells were then stained by the addition of 100 μl per well of 0.4% sulforhodamine B (SRB) in 1% acetic acid for 30 min at 4° C. Wells were then quickly rinsed 5×with acetic acid (1%) and allowed to air dry. The SRB was then solubilized by the addition of 100 μl per well of unbuffered 10 mM Tris base. Dye was quantified by measuring absorbance at 490 nm on a Molecular Devices kinetic microplate reader. Growth at each inhibitor concentration relative to the untreated control was calculated according to the following equation: percent growth=100×(T−To)/(C−To), where T was the average optical density (OD) of the test wells after 2 days of treatment, To was the average OD of the wells in the control plate on day 0 and C was the average OD of untreated wells. Plots of percent growth versus inhibitor concentration were used to determine the GI50.

SMILES: C=Cc1ccc(-c2ccc(CNc3nc(N[C@H](CC)CO)nc4c3ncn4C(C)C)cc2)cc1 [Compound 33]
GI50 (BT-549): 51.3 µM | GI50 (MCF7): 5.2 µM | GI50 (MDA-MB-435): 4.9 µM | GI50 (NCI/ADR-RES): 6.3 µM | GI50 (T-47D): 3.9 µM | GI50 (SF-268): 6.3 µM | GI50 (SF-295): 7.8 µM | GI50 (SF-539): 89.1 µM | GI50 (SNB-19): 38 µM | GI50 (U251): 3.7 µM | GI50 (COLO 205): 7.8 µM | GI50 (HCC-2998): > 1000 µM | GI50 (HCT-116): 6.2 µM | GI50 (HCT-15): 8.9 µM | GI50 (HT29): 8.9 µM | GI50 (KM12): 4.1 µM | GI50 (SW-620): 2.9 µM | GI50 (CCRF-CEM): 4.6 µM | GI50 (HL-60(TB)): 3.2 µM | GI50 (K-562): 3.1 µM | GI50 (MOLT-4): 3.8 µM | GI50 (RPMI-8226): 1.5 µM | GI50 (SR): 4.5 µM | GI50 (LOX IMVI): 16.6 µM | GI50 (M14): 7.8 µM | GI50 (MALME-3M): 11.7 µM | GI50 (SK-MEL-2): > 1000 µM | GI50 (SK-MEL-28): 5.9 µM | GI50 (SK-MEL-5): 16.2 µM | GI50 (UACC-257): 75.9 µM | GI50 (UACC-62): 8.3 µM | GI50 (A549/ATCC): 4.6 µM | GI50 (EKVX): 6.9 µM | GI50 (HOP-62): > 1000 µM | GI50 (NCI-H23): 26.3 µM | GI50 (NCI-H322M): 38.9 µM | GI50 (NCI-H460): 25.7 µM | GI50 (NCI-H522): 4.2 µM | GI50 (IGROV1): 10 µM | GI50 (OVCAR-3): > 1000 µM | GI50 (OVCAR-4): 31.6 µM | GI50 (OVCAR-5): > 1000 µM | GI50 (OVCAR-8): 6.6 µM | GI50 (SK-OV-3): > 1000 µM | GI50 (DU-145): 17.8 µM | GI50 (PC-3): > 1000 µM | GI50 (786-0): 18.6 µM | GI50 (ACHN): 5.2 µM | GI50 (CAKI-1): 4.4 µM | GI50 (TK-10): 8.3 µM | GI50 (UO-31): 8.1 µM

SMILES: CC(C)n1cnc2c(NCc3ccc(-c4ccccc4)cc3)nc(N[C@H]3CC[C@H](O)CC3)nc21 [Compound 77]
IC50 (CyclinB/cdk1): > 10 µM | melting point: 196 to 200 °C | IC50 (CyclinA/cdk2): > 10 µM | IC50 (CyclinE/cdk2): 4 µM and 14 µM

SMILES: CC(=O)N[C@H]1CC[C@H](Nc2nc(NCc3ccc(-c4ccsc4)cc3)c3ncn(C(C)C)c3n2)CC1 [Compound 113]
Cell Types Killed [1]: OVCAR-3 | IP Score ([1]; IP fibers): 18 | SC score ([1]; SC fibers): 4 | MTD [2]: 200 mg/kg | IC50 (CyclinA/cdk2): 0.4 µM | IC50 (CyclinE/cdk2): 0.3 µM

SMILES: CC(=O)N[C@H]1CC[C@H](Nc2nc(NCc3ccc(-c4ccccc4)cc3)c3ncn(C(C)C)c3n2)CC1 [Compound 76]
IC50 (CyclinB/cdk1): 6 µM | melting point: 224 to 225 °C | IC50 (CyclinA/cdk2): 12 µM and 11 µM and 3 µM | IC50 (CyclinE/cdk2): 3 µM and 5 µM and 2 µM

The remaining lines, values ahead:

GI50 (HeLa S-3 cells): 3 µM | melting point: 194 to 197 °C | IC50 (CyclinA/cdk2): 3 µM | IC50 (CyclinE/cdk2): 0.4 µM
SMILES: COC(=O)c1ccc(-c2ccc(CNc3nc(N[C@H]4CC[C@H](N)CC4)nc4c3ncn4C(C)C)cc2)cc1 [Compound 115]

GI50 (HeLa S-3 cells): > 10 µM | melting point: 344 to 347 °C | IC50 (CyclinA/cdk2): > 10 µM | IC50 (CyclinE/cdk2): > 10 µM
SMILES: CC(=O)N[C@H]1CC[C@H](Nc2nc(NCc3ccc(-c4ccc(C(=O)O)cc4)cc3)c3ncn(C(C)C)c3n2)CC1 [Compound 116]
